Assay results: ChEMBL document CHEMBL1138373, “New antifungal flavonoid glycoside from Vitex negundo” (2007)
In brackets after ≈: the same amount, converted by molar mass.

Legend:
Pseudomonas aeruginosa = test: Antibacterial activity against Pseudomonas aeruginosa by broth micro-dilution technique; type: functional
Staphylococcus aureus = test: Antibacterial activity against Staphylococcus aureus by broth micro-dilution technique; type: functional
Escherichia coli = test: Antibacterial activity against Escherichia coli by broth micro-dilution technique; type: functional
Enterococcus faecalis = test: Antibacterial activity against Streptococcus faecalis by broth micro-dilution technique; type: functional
Trichophyton benhamiae = test: Antifungal activity against Trichophyton mentagrophytes by broth micro-dilution technique; type: functional, Arthroderma benhamiae
Candida parapsilosis = test: Antifungal activity against Candida parapsilosis ATCC 22019 by broth micro-dilution technique; type: functional; conditions: Lodderomyces parapsilosis
Candida albicans = test: Antifungal activity against Candida albicans by broth micro-dilution technique; type: functional
Aspergillus fumigatus = test: Antifungal activity against Aspergillus fumigatus by broth micro-dilution technique; type: functional
Cryptococcus neoformans = test: Antifungal activity against Cryptococcus neoformans by broth micro-dilution technique; type: functional
Sporothrix schenckii = test: Antifungal activity against Sporothrix schenckii by broth micro-dilution technique; type: functional
Klebsiella pneumoniae = test: Antibacterial activity against Klebsiella pneumoniae by broth micro-dilution technique; type: functional

Row | SMILES | MIC (Pseudomonas aeruginosa) [µg/mL] | MIC (Staphylococcus aureus) [µg/mL] | MIC (Escherichia coli) [µg/mL] | MIC (Enterococcus faecalis) [µg/mL] | MIC (Trichophyton benhamiae) [µg/mL] | MIC (Candida parapsilosis) [µg/mL] | MIC (Candida albicans) [µg/mL] | MIC (Aspergillus fumigatus) [µg/mL] | MIC (Cryptococcus neoformans) [µg/mL] | MIC (Sporothrix schenckii) [µg/mL] | MIC (Klebsiella pneumoniae) [µg/mL]
1 | COC(=O)[C@H]1O[C@@H](Oc2cc(-c3cc(=O)c4c(O)cc(O)cc4o3)ccc2O)[C@H](O)[C@@H](O)[C@@H]1O | > 50 | > 50 | > 50 | > 50 | 6.25 (≈ 13.1 µM) | > 50 | > 50 | > 50 | 6.25 (≈ 13.1 µM) | > 50 | > 50
2 | C[C@]1(O)CC[C@@H]2C(C(=O)O)=CO[C@@H](O[C@H]3O[C@@H](CO)[C@H](O)[C@@H](O)[C@@H]3OC(=O)c3ccc(O)cc3)[C@@H]21 | 25 (≈ 50.4 µM) | 50 (≈ 101 µM) | 25 (≈ 50.4 µM) | > 50 | 6.25 (≈ 12.6 µM) | > 50 | > 50 | 50 (≈ 101 µM) | 6.25 (≈ 12.6 µM) | > 50 | 25 (≈ 50.4 µM)
3 | O=C(OCC1=C[C@@H](O)[C@@H]2C=CO[C@@H](O[C@H]3O[C@@H](CO)[C@H](O)[C@@H](O)[C@@H]3O)[C@H]12)c1ccc(O)cc1 | > 50 | > 50 | > 50 | > 50 | 12.5 (≈ 26.8 µM) | > 50 | > 50 | > 50 | 12.5 (≈ 26.8 µM) | > 50 | 50 (≈ 107 µM)
4 | CC1(C)S[C@@H]2[C@H](NC(=O)[C@H](N)c3ccccc3)C(=O)N2[C@H]1C(=O)O [AMPICILLIN] | 50 (≈ 143 µM) | 0.09 (≈ 0.258 µM) |  | 0.02 (≈ 0.0572 µM) |  |  |  |  |  |  | 0.09 (≈ 0.258 µM)
5 | COc1ccc(-c2oc3cc(OC)c(OC)c(O)c3c(=O)c2OC)cc1OC [ARTEMETIN] | 50 (≈ 129 µM) | 25 (≈ 64.4 µM) | 50 (≈ 129 µM) | > 50 | 25 (≈ 64.4 µM) | 25 (≈ 64.4 µM) | > 50 | 50 (≈ 129 µM) | 12.5 (≈ 32.2 µM) | > 50 | 25 (≈ 64.4 µM)
6 | OC(Cn1cncn1)(Cn1cncn1)c1ccc(F)cc1F [FLUCONAZOLE] |  |  |  |  | 2 (≈ 6.53 µM) | 1 (≈ 3.27 µM) | 0.5 (≈ 1.63 µM) | 2 (≈ 6.53 µM) | 1 (≈ 3.27 µM) | 2 (≈ 6.53 µM) | 
7 | O=c1cc(-c2ccc(O)c(O)c2)oc2cc(O)c([C@@H]3O[C@H](CO)[C@@H](O)[C@H](O)[C@H]3O)c(O)c12 [ISOORIENTIN] | > 50 | 25 (≈ 55.8 µM) | 25 (≈ 55.8 µM) | 25 (≈ 55.8 µM) | 12.5 (≈ 27.9 µM) | > 50 | > 50 | 50 (≈ 112 µM) | 25 (≈ 55.8 µM) | > 50 | 25 (≈ 55.8 µM)
8 | O=c1cc(-c2ccc(O)c(O)c2)oc2cc(O)cc(O)c12 [LUTEOLIN] | 25 (≈ 87.3 µM) | 25 (≈ 87.3 µM) | 50 (≈ 175 µM) | 25 (≈ 87.3 µM) | 50 (≈ 175 µM) | 25 (≈ 87.3 µM) | > 50 | > 50 | 25 (≈ 87.3 µM) | > 50 | 25 (≈ 87.3 µM)
